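A five-concentration, 48-hour dose response in 96-well plates underlies each endpoint, interpolated linearly between surrounding concentrations. GI50 marks 50% less growth.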 Active and inactive are the calls of the source. Cut-off read from the data, not from the text of the source: active = GI50 up to about 1.1 µM and inactive = higher.

Among the test systems are OVCAR-8; SK-MEL-28; OVCAR-4; HOP-62; MOLT-4; DU-145; T47D; PC-3; TK-10; EKVX; SR; ACHN; SN12C; BT-549; NCI/ADR-RES; UACC-62; SK-MEL-2; HOP-92; SW-620.
Common to all, as to assay: inhibition of tumour cell growth, NCI panel, 48 h

On to `O=C1C(c2c(O)[nH]c3ccc([N+](=O)[O-])cc23)=Nc2ccccc21`, for which the GI50 is > 100 µM (inactive) with OVCAR-8; > 100 µM (inactive) in the test on SK-MEL-28; > 100 µM (inactive) in the test with OVCAR-4; 87.5 µM (inactive) in the test on HOP-62; 65.9 µM (inactive) in the test on MOLT-4; > 100 µM (inactive) in the test on DU-145. Moreover, the GI50 with T47D is > 100 µM (inactive); in the test on PC-3 it was 83.6 µM (inactive); with TK-10, 34.6 µM (inactive); with EKVX, > 100 µM (inactive); in the test with SR, 30.3 µM (inactive); in the test with ACHN, 40.5 µM (inactive). Moreover, the GI50 in the test with SN12C was > 100 µM (inactive); with BT-549, 52.5 µM (inactive); in the test on NCI/ADR-RES, > 100 µM (inactive); in the test on UACC-62, > 100 µM (inactive); with SK-MEL-2 it was 43.5 µM (inactive); in the test with HOP-92 it was > 100 µM (inactive). For the same compound, in the test with SW-620, the GI50 is > 100 µM (inactive).
As to `NS(=O)(=O)c1ccc(NC(NC(=O)C(C(F)(F)F)C(F)(F)F)(C(F)(F)F)C(F)(F)F)cc1`, the GI50 with OVCAR-8, with SK-MEL-28, with OVCAR-4, in the test on HOP-62, in the test on MOLT-4 and in the test with DU-145 was > 100 µM (inactive) each time. In addition, the GI50 in the test with T47D is > 100 µM (inactive); in the test on PC-3 it was > 100 µM (inactive); in the test on TK-10, 0.305 µM (active); in the test on EKVX, > 100 µM (inactive); in the test on SR, > 100 µM (inactive); with ACHN, > 100 µM (inactive). Further, the GI50 in the test on SN12C, in the test with BT-549, in the test with NCI/ADR-RES, in the test with UACC-62, with SK-MEL-2 and in the test with HOP-92 was > 100 µM (inactive) each time. The GI50 with SW-620 was > 100 µM (inactive).
Take `O=C1c2cc([N+](=O)[O-])sc2C(=O)c2cc([N+](=O)[O-])sc21`: the GI50 was 5.79 µM (inactive) in the test with OVCAR-8; 3.23 µM (inactive) in the test with SK-MEL-28; 4.51 µM (inactive) in the test with OVCAR-4; 6.21 µM (inactive) with HOP-62; 2.84 µM (inactive) in the test with MOLT-4; 10.3 µM (inactive) in the test with DU-145. In addition, the GI50 in the test on T47D is 3.55 µM (inactive); in the test with PC-3, 4.6 µM (inactive); in the test on TK-10, 5.89 µM (inactive); in the test with EKVX, 3.13 µM (inactive); with SR it was 0.268 µM (active); in the test with ACHN, 3.85 µM (inactive). Besides, the GI50 is 2.8 µM (inactive) in the test with SN12C; 2.05 µM (inactive) with BT-549; 3.62 µM (inactive) with NCI/ADR-RES; 1.87 µM (inactive) in the test on UACC-62; 6.7 µM (inactive) in the test on SK-MEL-2; 1.85 µM (inactive) with HOP-92. Moreover, the GI50 with SW-620 is 1.72 µM (inactive).
For `COC(=O)CNC(=O)C(Cc1ccccc1)NC(=O)c1ccc(-c2ccc(Cl)cc2Cl)o1` (stereo not given), the GI50 in the test on OVCAR-8 is 25.1 µM (inactive); in the test on SK-MEL-28 it was 43.8 µM (inactive); with OVCAR-4 it was 21.5 µM (inactive); with HOP-62, 26.8 µM (inactive); in the test with MOLT-4, 14.3 µM (inactive); with DU-145, 37.6 µM (inactive). The GI50 in the test with T47D was 20.7 µM (inactive); in the test with PC-3, 21.1 µM (inactive); in the test with TK-10, 24.7 µM (inactive); in the test with EKVX, 20.3 µM (inactive); in the test on SR it was 14.9 µM (inactive); with ACHN it was 18.9 µM (inactive). Further, the GI50 in the test on SN12C was 26.3 µM (inactive); in the test with BT-549 it was 26.4 µM (inactive); in the test with NCI/ADR-RES, 21.8 µM (inactive); in the test on UACC-62 it was 13.6 µM (inactive); with SK-MEL-2 it was 28.3 µM (inactive); with HOP-92, 12.4 µM (inactive). The GI50 with SW-620 is 34.2 µM (inactive).
Consider `CCOC(=O)C1(Cc2ccccc2)Cc2cc3c(cc2C1=O)CCC3` (stereo not given), for which the GI50 in the test with OVCAR-8, in the test with SK-MEL-28, in the test with OVCAR-4, in the test on HOP-62, in the test with MOLT-4 and in the test on DU-145 was > 100 µM (inactive) in each case. Besides, the GI50 with T47D, with PC-3, in the test on TK-10, in the test with EKVX, in the test on SR and in the test on ACHN was > 100 µM (inactive) throughout. Besides, the GI50 in the test on SN12C, in the test on BT-549, in the test on NCI/ADR-RES, in the test on UACC-62, in the test on SK-MEL-2 and in the test on HOP-92 was > 100 µM (inactive) each time. Also, the GI50 in the test on SW-620 is > 100 µM (inactive).
As to `O=c1c2cc(I)ccc2nc(-c2cccs2)n1-c1ccc(O)cc1`, the GI50 in the test on OVCAR-8 is 15.5 µM (inactive); in the test with SK-MEL-28, 16 µM (inactive); with OVCAR-4, 12.6 µM (inactive); in the test on HOP-62, 17.5 µM (inactive); with MOLT-4, 6.04 µM (inactive); in the test with DU-145 it was 6.78 µM (inactive). The GI50 with T47D is 1.56 µM (inactive); in the test with PC-3, 10.6 µM (inactive); in the test on TK-10, 10.7 µM (inactive); with EKVX, 14.4 µM (inactive); in the test with SR, 17.4 µM (inactive); in the test with ACHN it was 8.2 µM (inactive). In addition, the GI50 is 15.5 µM (inactive) in the test on SN12C; 14.5 µM (inactive) in the test with BT-549; 17.8 µM (inactive) with NCI/ADR-RES; 13.1 µM (inactive) in the test with UACC-62; 15.6 µM (inactive) in the test on SK-MEL-2; 10.1 µM (inactive) in the test with HOP-92. In addition, the GI50 in the test on SW-620 is 22.2 µM (inactive).
On to `CSc1c(C#N)c(N)nc2c(/N=N\c3ccc(Cl)cc3)c(N)nn12`, for which the GI50 in the test on OVCAR-8 was 2.08 µM (inactive); in the test on SK-MEL-28, 2.58 µM (inactive); with OVCAR-4, 2.64 µM (inactive); in the test with HOP-62, 10.7 µM (inactive); with MOLT-4 it was 2.44 µM (inactive); in the test on DU-145, 2.24 µM (inactive). The GI50 was 1.67 µM (inactive) in the test on T47D; 2.7 µM (inactive) in the test with PC-3; 13.3 µM (inactive) with TK-10; 0.34 µM (active) in the test on EKVX; 2.55 µM (inactive) with SR; 5.66 µM (inactive) with ACHN. Further, the GI50 with SN12C was 3.17 µM (inactive); in the test on BT-549 it was 2.94 µM (inactive); in the test on NCI/ADR-RES, 16.8 µM (inactive); in the test on UACC-62, 3.33 µM (inactive); with SK-MEL-2, 2.87 µM (inactive); in the test on HOP-92 it was 3.29 µM (inactive). Moreover, the GI50 in the test with SW-620 is 2.16 µM (inactive).
Regarding `C(=N\c1ccc2c(c1)Cc1ccccc1-2)/c1ccccn1`, the GI50 is > 100 µM (inactive) in the test on OVCAR-8; > 100 µM (inactive) in the test on SK-MEL-28; > 100 µM (inactive) in the test with OVCAR-4; > 100 µM (inactive) with HOP-62; 23 µM (inactive) with MOLT-4; 88.3 µM (inactive) in the test on DU-145. Besides, the GI50 with T47D was 59.4 µM (inactive); with PC-3 it was 38.7 µM (inactive); with TK-10, 42.7 µM (inactive); with EKVX, 28.8 µM (inactive); with SR it was 24.9 µM (inactive); in the test on ACHN it was > 100 µM (inactive). In addition, the GI50 is 28.4 µM (inactive) in the test on SN12C; 81.8 µM (inactive) in the test with BT-549; 91.2 µM (inactive) in the test with NCI/ADR-RES; 89.3 µM (inactive) in the test with UACC-62; 43.3 µM (inactive) in the test with SK-MEL-2; > 100 µM (inactive) with HOP-92. The GI50 in the test with SW-620 is 44.6 µM (inactive).
In the case of `Cc1ccc2[nH]c3c(c2c1)C1CCC(C(C)(C)C)CC1C1C(=O)N(c2ccc(Oc4ccccc4)cc2)C(=O)C31` (stereo not given), the GI50 is 8.73 µM (inactive) in the test with OVCAR-8; > 58.7 µM (inactive) with SK-MEL-28; 14.2 µM (inactive) in the test on OVCAR-4; 22.4 µM (inactive) with HOP-62; 2.77 µM (inactive) in the test with MOLT-4; > 95.3 µM (inactive) with DU-145. Moreover, the GI50 is 16.2 µM (inactive) in the test with T47D; 67.9 µM (inactive) with PC-3; 20 µM (inactive) in the test on TK-10; 27 µM (inactive) with EKVX; 1.05 µM (active) with SR; 22.6 µM (inactive) with ACHN. Moreover, the GI50 with SN12C is 10.4 µM (inactive); in the test with BT-549, 20 µM (inactive); in the test with NCI/ADR-RES, 20.5 µM (inactive); with UACC-62 it was 47.1 µM (inactive); in the test on SK-MEL-2, 34.9 µM (inactive); in the test with HOP-92, 14.4 µM (inactive). Also, in the test on SW-620, the GI50 was 19.3 µM (inactive).
With `C[C@H](Nc1nc(N)c(N=O)c(=O)n1C)C(=O)O`, the GI50 in the test with OVCAR-8, with SK-MEL-28, with OVCAR-4, in the test on HOP-62, in the test on MOLT-4 and in the test on DU-145 was > 10 µM (inactive) each time. The GI50 in the test on T47D, in the test with PC-3, with TK-10, with EKVX, in the test with SR and with ACHN was > 10 µM (inactive) in each case. Also, the GI50 in the test with SN12C, in the test on BT-549, in the test on NCI/ADR-RES, in the test on UACC-62, in the test with SK-MEL-2 and in the test with HOP-92 was > 10 µM (inactive) in each case. Also, in the test on SW-620, the GI50 is > 10 µM (inactive).

For the origin of these results see ChEMBL document CHEMBL1201862, “PubChem BioAssay data set” (2004).
